Laboratory results: patent US4064277A, “Method for processing soybeans” (Kikkoman Shoyu Co., Ltd., priority 1974, dated 1977)
Values belong to the compound of their own block, whether it stands above or below them.

Experiments:
β-glycosidase [1] = test: minimum effective amount of competitive inhibitor, operation of Example 1 repeated; details: based on the weight of the whole soybeans
Method: 40 Grams of whole soybeans were swelled by soaking at room temperature for 8 hours in 80 ml. of an aqueous solution containing glucono-1,5-lactone as a competitive inhibitor for β-glycosidase in such proportion, based on the weight of the soybeans, as shown in Table 1. In this case, two thirds times the amount of said aqueous solution was incorporated into the soybeans. To the soaked soybeans was added 320 ml. of hot water (at above 95° C.), and the resulting mixture was treated by means of a homogenizer to prepare a ground suspension, which was then filtered by use of a 100-mesh sieve to obtain an extract. The temperature at the time of the homogenization treatment effected with addition of said hot water was above 90° C., and, by said treatment, β-glycosidase contained in the soybeans was completely inactivated, and the mixture was freed from beany odor (grassy smell). The thus obtained extract (soybean milk) was subjected to organoleptic test by drinking to obtain such results as shown in Table 1. The aforesaid operation was repeated, except that the glucono-1,5-lactone was replaced by each of the competitive inhibitors shown in Table 2, and the minimum effective amount of the competitive inhibitor based on the weight of the whole soybeans was calculated. The same operation as in Example 1 was effected, except that the glucono-1,5-lactone was replaced by each of the competitive inhibitors set forth in Table 3, and the minimum effective amount of the competitive inhibitor based on the weight of the whole soybeans was calculated.

β-glycosidase [2] = test: β-glycosidase inhibitory ratio in soaked whole soybeans (p-nitrophenyl-β-D-glucopyranoside substrate, 420 mμ); format: biochemical; details: for β-Glycosidase inhibitory ratio (%): soaking 8 hours at room temperature
Method: 40 Grams of whole soybeans were swelled by soaking at room temperature for 8 hours in 80 ml. of an aqueous solution containing glucono-1,5-lactone as a competitive inhibitor for β-glycosidase in such proportion, based on the weight of the soybeans, as shown in Table 1. In this case, two thirds times the amount of said aqueous solution was incorporated into the soybeans. To the soaked soybeans was added 320 ml. of hot water (at above 95° C.), and the resulting mixture was treated by means of a homogenizer to prepare a ground suspension, which was then filtered by use of a 100-mesh sieve to obtain an extract. The temperature at the time of the homogenization treatment effected with addition of said hot water was above 90° C., and, by said treatment, β-glycosidase contained in the soybeans was completely inactivated, and the mixture was freed from beany odor (grassy smell).
^2) The β-glycosidase inhibitory ratio (%) was measured in the
following manner: At the time of soybean soaking, in the above-mentioned
operation, 0.1 weight % based on the weight of the soybeans of
p-nitrophenyl-β-D-glucopyranoside was absorbed together with the
soaking solution into the soybeans. After lapse of the same soaking perio
as mentioned previously, the soybeans were boiled in water for 5 minutes.
Subsequently, the soybeans were soaked in a 2.5M sodium carbonate solutio
to elute p-nitrophenol which had been liberated in the soybeans due to th
action of β-glycosidase. The developed yellow color was determined b
using electrophotometer (420 mμ), and the ratio (%) of
β-glycosidase activity remaining in each sample was subtracted from
100%, assuming as 100% the β-glycosidase activity in the sample of
Run No. 1, which had not been incorporated with glucono-1,5-lactone, to
obtain a value. This value was decided as the inhibitory ratio (%).

Compound: C[C@@H]1OC(=O)[C@@H](O)[C@H](O)[C@@H]1O [Fucono-1,5-lactone, fucono-1,5-lactone]
Minimum effective amount (weight %) (β-glycosidase [1]): 0.02 weight %

Compound: O=C1O[C@H](CO)[C@H](O)[C@H](O)[C@H]1O [Galactono-1,5-lactone, galactono-1,5-lactone]
Minimum effective amount (weight %) (β-glycosidase [1]): 20 weight %

Next, values leading:

β-Glycosidase inhibitory ratio (%) (β-glycosidase [2]; Run No. 2: amount used 0.0015 weight %, incorporated into soybeans 0.0010 weight %): 13% | β-Glycosidase inhibitory ratio (%) (β-glycosidase [2]; Run No. 3: amount used 0.015 weight %, incorporated into soybeans 0.010 weight %): 49% | β-Glycosidase inhibitory ratio (%) (β-glycosidase [2]; Run No. 4: amount used 0.15 weight %, incorporated into soybeans 0.10 weight %): 73% | β-Glycosidase inhibitory ratio (%) (β-glycosidase [2]; Run No. 5: amount used 1.5 weight %, incorporated into soybeans 1.0 weight %): 90% | activity of β-glycosidase in the soybeans (β-glycosidase [2]; whole soybeans impregnated with 0.10 weight % or more, as aqueous solution): greatly inhibited
Compound: O=C1O[C@H](CO)[C@@H](O)[C@H](O)[C@H]1O [Glucono-1,5-lactone, glucono-1,5-lactone]

Minimum effective amount (weight %) (β-glycosidase [1]): 40 weight %
Compound: OC[C@H]1OC(O)[C@H](O)[C@@H](O)[C@@H]1O (stereo partly drawn) [Glucose, glucose]

Minimum effective amount (weight %) (β-glycosidase [1]): 0.01 weight %
Compound: OC[C@H]1NC(O)[C@H](O)[C@@H](O)[C@@H]1O (stereo partly drawn) [Nojirimycin]
